Data taken from patent EP1002537A1, “Use of melarsoprol for the manufacture of a medicament for treating B-cell lymphoproliferative diseases, such as multiple myeloma” (ASSISTANCE PUBLIQUE, HOPITAUX DE PARIS, priority 1998, dated 2000).

Columns and labels:
LP1 cells [1] = test: Growth inhibition of plasma cell line (cell count and thymidine incorporation); assay type: cell-based, human
Method: (§1) The human myeloma cell lines were purchased from DMS (Braunschweig, Germany) (NCI H929 and LP1) and from American Type Culture Collections (Rockville, MD) (OPM2 and U266). NCI, OPM2, U266 (and all studied non plasmacytic cell lines) were cultured in RPMI 1640 supplemented with 1% penicillin/streptomycin, 1 mmol/L L-glutamine and 10% heat-inactivated fetal calf serum at 37°C, 5% CO2 in air. LP1 cells were cultured in similar conditions, in Iscove's medium.
(§2) Cells were incubates with or without 10^-5 to 10^-8 mol/L melarsoprol up to 96 hours, without any adjustment after culture initiation. Cell number and viability were determined by trypan blue exclusion. Morphologic analysis was performed using Wright-Giema and DAPI (4'-6-diamidino-2-phenylindole) staining on cytocentrifuge preparations. For proliferation assays, aliquots of 2x10^4 cells in triplicate were incubated in 96-well plates and 3H-thymidine (3H-TdR) (1 µCi) was added for the final 8 hours of the culture period. Cells were harvested onto glass filter and ^3H-TdR incorporation was counted on a liquid scintillation counter.
(§3) The growth of NCI, U266, OPM2 and LP1 plasma cell lines in medium alone or in the presence of melarsoprol (10^-5 to 10^-8 mol/L) was assessed by cell count and thymidine incorporation.

NCI cells [2] = test: as above; assay type: cell-based, human
Method: as §1, §2, §3

OPM2 cells = test: as above; assay type: cell-based, human
Method: as §1, §2, §3

U266 = test: as above; assay type: cell-based, human; details: U266 cells
Method: as §1, §2, §3

LP1 cells [3] = test: Cell survival by trypan blue exclusion; assay type: cell-based, human; details: LP1, after 48 hours, 10-6 mol/L melarsoprol
Method: as §1, §2
(§4) Treatment of plasma cell lines with melarsoprol led to a dose- and time dependent inhibition of cell survival, as determined using trypan blue exclusion. After 48 hours, in the presence of 10-6 mol/L melarsoprol , percentage of trypan blue negative cells were 15 ± 7.2, 56 ± 11, 62 ± 5 8, and 81 ± 6.8% in NCI, OPM2, U266 and LP1 cells, respectively. Cell death was mainly due to apoptosis, as shown by the characteristic morphological changes in nuclei as well as by the TUNEL method.

NCI = test: Cell survival by trypan blue exclusion; assay type: cell-based, human; details: after 48 hours, 10-6 mol/L melarsoprol
Method: as §1, §2, §4

OPM2 = test: Cell survival by trypan blue exclusion; assay type: cell-based, human; details: OPM2, after 48 hours, 10-6 mol/L melarsoprol
Method: as §1, §2, §4

NCI cells [4] = test: DNA fragmentation by agarose gel electrophoresis of genomic DNA; assay type: cell-based, human; details: NCI cells treated with 10^-6 mol/L
NCI cells [5] = test: FACS analysis after annexin-V and propidium iodide staining; assay type: cell-based, human; details: 10^-6 mol/L
Method: (§5) Direction of phosphatidylserine on the outer leaflet of apoptotic cells was performed using Annexin-V-FLUOS (Boehringer Mannheim, Germany) and propidium iodide (PI) according to the manufacturer's recommendations. Expression of cell surface CD38, CD138 (BB-4° and CD15 antigens was studied using corresponding fluorescein isothiocyanate (FITC) or phycierythrin conjugated antibodies that were purchased from Diaclone (Besançon, France) and Becton Dickinson (San Jose, Ca.). Flow cytometry was performed with a FACSean apparatus (Beckton Dickinson).
(§6) FACS analysis of NCI and U266 cells after staining with fluorescein-labelled annexin-V and propidium iodide was performed to detect the translocation of phosphatidylserine from the inner part of plasma membrane to the outer layer which accurs in the early stages of apoptosis. Before staining, cells were cultivated with medium alone) melarsoprol (10^-6 mol/L) or dexamethasone (Dex, 10^-6 mol/L) over a time period of 48 hours. […] During the same time; the number of double positive necrotic cells increased and, at 18 hours, only very few double-negative living cells were detectable. Apoptosis was moderate in cells cultured with Dex and in control culture. Annexin-positive, PI-negative apoptotic U266 cells were also observed in the presence of melarsoprol (18% of residual cells after a 18-hour culture).

U266 cells = test: as above; assay type: cell-based, human; details: 10^-6 mol/L, 18-hour culture
Method: as §5, §6

[6] = test system: plasma-cell enriched preparations of myeloma patients; test: Viability (trypan blue exclusion) of fresh myeloma cells; assay type: cell-based, human; details: 48 hours, n=4 (40 to 77.5%); 10.5 ± 14.7% without the drug
From the text: (§7) Eleven patients with multiple myeloma (MM) or plasma cell leukemia (PCL) were studied after informed consent. Mononuclear cells were separated by Ficoll-Hypaque centrifugation from peripheral blood of 4 patients with PCL (including 2 with a primary PCL), from bone marrow (BM) of 6 patients with MM (including 4 at diagnosis) and from the pleural effusion of a newly diagnosed myeloma patient. Plasma cell-enriched preparations were obtained by centrifugation of mononuclear cells on a Percoll gradient, as previously described (Iwato K, et al, Blood 72:562, 1988). Plasma cell percentages were determined after intracytoplasmic staining using fluorescein-conjugated antibodies to human immunoglobulin (Ig) heavy and light chains (from Nordic, Tilburg, The Netherlands).Short-term cultures of blood and BM mononuclear cells and of plasma cell-enriched preparations were performed in RPMI 1640, in similar conditions as cell lines.
(§8) Cells were incubates with or without 10^-5 to 10^-8 mol/L melarsoprol up to 96 hours, without any adjustment after culture initiation. Cell number and viability were determined by trypan blue exclusion. Morphologic analysis was performed using Wright-Giema and DAPI (4'-6-diamidino-2-phenylindole) staining on cytocentrifuge preparations. […] Cells were harvested onto glass filter and ^3H-TdR incorporation was counted on a liquid scintillation counter. […]

[7] = test system: plasma-cell enriched preparations of myeloma patients; test: Growth (3H TdR uptake) of fresh myeloma cells; assay type: cell-based; details: Homo sapiens; three plasma-cell preparations; read-out: IC50 (inhibition of cell growth)
From the text: as §7, §8

[8] = test system: myeloid cells (CD38^low, CD15 +); test: FACS analysis of patients' bone marrow mononuclear cells (annexin V with CD38 or CD15); assay type: cell-based, human
From the text: as §7, §5
(§9) To comparatively assess the effects of melarsoprol on myeloid and plasma cells, bone marrow mononuclear cells obtained from patients with newly diagnosed multiple myeloma were cultured for 5 days in the presence of 10^-6 mol/L melarsoprol. […] Indeed, in a representative study a bone marrow sample initiality containing 30% of plasma cells (CD38^higt +), 12% of the latter expressed annexin V after 2 days of culture with 10^-6 mol/L melarsoprol, whereas less than 1% of myeloid cells (CD38^low, CD15 +) were positive for the apoptosis marker. At day 5, the plasma cell number had much more decreased than the myeloid cell number and viable cells (propidium iodide negative) contained 7.8 % of CD38^higt positive cells, as compared to 22.5 % in control culture, performed with medium alone. CD15+ myelo-monocytic cell percentages were similar in arsenic-exposed cultures and in controls, with a decrease in the CD15^low+ fraction.

[9] = test system: plasma cells (CD38^higt +); test: as above; assay type: cell-based, human
From the text: as §7, §5, §9

[10] = test system: Mononuclear cells purified from peripheral blood of normal donors; test: Pokeweed mitogen (PWM)-induced plasma cell differentiation of normal lymphocytes; assay type: cell-based, human; details: 10^-6 mol/L and 5 x10^-7 mol/L
Method: Mononuclear blood cells of 3 normal donors were cultured in the presence of PWM (from Life Technology, Cergy Pontoise, diluted at 1/100) and melarsoprol (5 x 10^-7 or 10^-6 mol/L). Plasma cells were numerated at day 7 after immunofluorescence staining with fluorescein-conjugated antibodies directed against human Ig chains, IgM concentrations in supernatants were also measured at day 5, by ELISA, as previously described (Grillot-Courvalin C et al, Scand. J. Immunol. 23:679, 1986).
Mononuclear cells purified from peripheral blood of normal donors were incubated with pokeweed mitogen in the presence of two different concentrations (10^-6 mol/L and 5 x10^-7 mol/L) of the organic or of the inorganic arsenical.

human myeloma cells = test: SCID mice transplanted with human myeloma cells: efficacy; assay type: in vivo; details: 30µg/g 5 days a week IP, 30 to 40 days
Method: The following studies of melarsoprol conducted in SCID mice transplanted with human myeloma cells confirm in vivo the in vitro effects of the arsenical compound.
(§10) SCID mice were irradiated before the intra-peritoneal (IP) injection of 3 to 5*10^6 plasma cells purified from peripheral blood of patients with plasma cell leukemia. Engrafment was assessed by bi-monthly measurement of the human monoclonal immunoglobulin (HuMIg) concentration in mouse serum, using an ELISA.
Mice injected with the cells from 3 different patients developed the human tumor and were treated with melarsoprol during 30 to 40 days.

[11] = SCID mice transplanted with human myeloma cells: toxicity and arsenic amounts; assay type: in vivo; details: any studied organ, especially the liver
Method: as §10
Arsenic amounts in mouse serum and tissues were in the expected 〈〈 pharmacological 〉〉 range.

[12] = test system: T, myeloid and epithelial cell lines; test: Comparative example: growth of other hematopoietic cell types; assay type: cell-based
Method: as §1, §2
In addition to plasma cell, other hematopoietic cell types were also studied. The inhibition of growth was marginal in T, myeloid and epithelial cell lines.

myeloma cells = test: Growth and survival of myeloma cells (summary statement); assay type: cell-based, human
From the text: According to the present invention, melarsoprol reduces the growth and survival of myeloma cells by triggering programmed cell death.
This supports the clinical efficacy of the melarsoprol in patients with multiple myeloma. Indeed, melarsoprol is active at concentrations ranging from 10^-6 to 10^-8 mol/L, which correspond to the in vivo pharmacological concentrations of the drugs.

[13] = test system: secreting multiple myeloma; test: Bi-central, open, non-comparative study in patients with secreting multiple myeloma; assay type: in vivo; details: IV 1mg/kg first day, then 2mg/kg daily, not longer than 56 days
Method: A bi-central, open, non-comparative study of melarsoprol in patients suffering from secreting multiple myeloma was carried out.
Patients with secreting multiple myeloma included in the study had been pretreated with and were unresponsive to a minimum of 3 VAD (vincristine-adriamycine-dexamethasone) or VAMP (vincristine-adriamycine-methylprednisolone) chemotherapy regimens.
Patients are treated daily with co-administration of anti-convulsive and B1 vitamin for 56 days if allowed by toxicity.
At the first day, the IV solution of melarsoprol (1mg/kg) is administered in 3 intravenous injections.
The IV solution of melarsoprol (2mg/kg) is then administered daily and for a time period not longer than 56 days in the same manner. […]

leukemia = details: IV daily for 3 days, repeated weekly for 3 weeks, 1 to 3,6mg/kg; cited from earlier work
[14] = 2 days of culture, 10^-6 mol/L, representative bone marrow sample

For `Nc1nc(N)nc(Nc2ccc([As]3SCC(CO)S3)cc2)n1` (stereo not drawn) [melarsoprol, 2-p-[(4,6-diamino-s-triazin-2-yl)amino]phenyl-4-hydroxymethyl-1,3,2-dithiarsoline], the IC50 (LP1 cells [1]; Homo sapiens, LP-1, LP1 cells, growth inhibition) was about 1 µM, the “time-dependent inhibition of growth” value (LP1 cells [1]; LPI cells) was “significant but less important inhibition of growth” and the “time-dependent inhibition of growth” value (NCI cells [2]) was “marked time-dependent inhibition of growth”. The IC50 (NCI cells [2]; Homo sapiens, 72 hours, cell number and thymidine incorporation, read-out: 50% growth inhibitory concentration (IC50) (converted)) was 0.3 µM, the “time-dependent inhibition of growth” value (OPM2 cells) was “marked time-dependent inhibition of growth” and the IC50 (OPM2 cells; Homo sapiens, OPM-2, growth inhibition) was about 0.1 µM. For the same compound, the IC50 (U266; Homo sapiens, U-266, growth inhibition) was about 1 µM, the “time-dependent inhibition of growth” value (U266) was “significant but less important inhibition of growth” and the “percentage of trypan blue negative cells” value (LP1 cells [3]) was 81 ± 6.8%. The “percentage of trypan blue negative cells” value (NCI) was 15 ± 7.2%, the “percentage of trypan blue negative cells” value (OPM2) was 56 ± 11% and the DNA fragmentation (NCI cells [4]) was “typical DNA ladders”. For the same compound, the double-negative living cells (NCI cells [5]; at 18 hours) was “only very few”, the “apoptosis (annexin-positive, PI-negative apoptotic cells)” value (NCI cells [5]; time period of 48 hours) was “rapidly induced apoptosis” and the “Annexin-positive, PI-negative apoptotic U266 cells” value (U266 cells) was 18 % of residual cells. The “mean decline in cell viability” value [6] was 52.5 ± 17.3%, the IC50 [7] was about 0.1 µM and the “myeloid cells (CD38^low, CD15 +) positive for the apoptosis marker” value [8, 14] was “less than 1%”. For the same compound, the “CD15+ myelo-monocytic cell percentages versus controls” value ([8]; day 5, 10^-6 mol/L) was “similar”, the “plasma cells (CD38^higt +) expressing annexin V” value [9, 14] was 12% and the percent CD38-high plasma cells among viable cells at 1 µM ([9]; Homo sapiens, 120 h, read-out: CD38^higt positive cells among viable cells (propidium iodide negative)) was 7.8%. For the same compound, the “plasma cell differentiation induced by the mitogen” value [10] was “only slightly inhibited”, the remissions (human myeloma cells; all evaluable experiment) was “remissions have been achieved” and the “level of the HuMIg in mouse serum” value (human myeloma cells; undetectable in some animals) was “dramatic decrease”. The “toxic lesions in studied organs” value [11] was “no evidence of toxic lesions”, the inhibition of growth [12] was “marginal” and the active concentrations (myeloma cells) was 10^-6 to 10^-8 mol/L. The “Efficiency for treating multiple myeloma and reduced side-effects” value [13] was “verified”, the CNS toxicity (leukemia) was “excessive CNS (central nervous system) toxicity” and the anti-leukemic activity (leukemia) was “no major anti-leukemic activity”.
